{
  "source": "patent US20220334127A1",
  "about": "“IN VITRO METHOD FOR OBTAINING CLINICAL DATA IN PATIENTS SUFFERING FROM AN INFLAMMATORY DISEASE” (FUNDACIÓN PARA LA FORMACIÓN E INVESTIGACIÓN SANITARIAS DE …, priority 2019, published 2022)",
  "key": {"[1]": {"tested_on": "HIF-1α", "assay": "HIF-1α staining in human monocytes by flow cytometry", "assay_type": "cell-based", "conditions": "ATP 1 mM 30 min, washed, cultured 2 h (FIG. 7e)", "protocol": "(e) Representative histogram plot of HIF-1α staining (left) or quantification of HIF-1α mean intensity fluorescence increase (ΔMFI, right) in monocytes isolated from healthy donor blood samples and treated or not with ATP (1 mM, 30 min) in the presence or absence of AZ11645373 (10 μM) or PDTC (10 μM), and then washed and cultured for 2 h; non-stained monocytes (light grey, left).\nHuman peripheral blood mononuclear cells (PBMCs) were isolated from blood within one hour after extraction using Ficoll histopaque 1077 (Sigma-Aldrich). […] Cells were treated with ATP (Sigma-Aldrich), antimycin A (Sigma-Aldrich) or FCCP (Sigma-Aldrich) in the presence or absence of PDTC (Sigma-Aldrich) or echinomycin (Sigma-Aldrich) in E-total buffer (147 mM NaCl, 10 mM HEPES, 13 mM glucose, 2 mM CaCl2), 1 mM MgCl2, and 2 mM KCl) and then washed and stimulated with E. coli LPS O55:B5 in their respective complete media. […] After LPS treatment, cells were incubated with P2X7 modulating nanobodies, the specific P2X7 receptor antagonist A438079 or AZ11645373 (Tocris), and then subsequently stimulated with ATP or nigericin (Sigma-Aldrich) in E-total buffer. Times and concentrations for the reagents used are specified in the figure legends.\nHIF-1α expression was detected in CD14^+ monocytes using Alexa Fluor-647 mouse anti-human HIF-1α (BD Biosciences, Clone 54) at 1:1000 dilution."}, "[2]": {"tested_on": "P2X7 receptor", "assay": "Cecal ligation and puncture (CLP) sepsis model with i.p. ATP before operation", "assay_type": "in vivo, mouse", "conditions": "wild type mice, ATP pre-treatment (FIG. 6g)", "procedure": "FIG. 6. P2X7 receptor stimulation induces an impairment of the NLRP3 inflammasome in monocytes. (a-b) Percentage of monocytes with ASC-specks (a) and release of […] from PBMCs (b) isolated from healthy donor blood samples treated with ATP (3 mM, 30 min; ATP-pre), then washed and primed with or without LPS (1 μg/ml, 2 h) and then treated for 20 min with ATP (3 mM; ATP-post) or nigericin (10 μM) as indicated. (c) IL-1β release from wild type or P2rx7^−/− BMDMs treated as in a, but with 4 h LPS priming and 30 min of ATP or nigericin. […] (e) Expression of Nrlp3 and Illb genes analyzed by quantitative PCR from wild type or P2rx7^−/− BMDMs treated with ATP (3 mM, 30 min; ATP-pre), then washed and primed with or without LPS (100 ng/ml, 4 h). […]\nThe University of Murcia Animal Research Ethical Committee approved animal procedures (ref 5/2014) and then the Animal Health Service of the General Directorate of Fishing and Farming of the Council of Murcia (Servicio de Sanidad Animal, Dirección General de Ganaderia y Pesca, Consejeria de Agricultura y Agua Región de Murcia) approved animal procedures with ref A1320140201. […] Buprenorphine (0.3 mg/kg) was administered intraperitoneally at the time of surgery and mice were monitored continuously until recovery from anesthesia. […] Then the number of bacterial colonies was counted and expressed as CFU/ml of serum."}, "[3]": {"assay": "Cell death (LDH assay)", "assay_type": "cell-based", "procedure": "Presence of LDH in cell-free supernatants was measured using the Cytotoxicity Detection kit (Roche) following the manufacturer's instructions."}},
  "data": [
    {"molecule": "Nc1ncnc2c1ncn2[C@@H]1O[C@H](COP(=O)(O)OP(=O)(O)OP(=O)(O)O)[C@@H](O)[C@H]1O", "note": "[ATP, adenosine triphosphate]", "values": [
      {"measurement": "HIF-1α expression by the agent itself", "setting": "[1]", "value": "increased"},
      {"measurement": "bacterial load in the blood", "setting": "[2]; 24 h after CLP", "value": "increased"},
      {"measurement": "release of IL-1β into the mouse peritoneum", "setting": "[2]; peritoneal lavage 24 h after CLP", "value": "decreased"},
      {"measurement": "cell death", "setting": "[3]", "value": "did not induce cell death"}
    ]}
  ]
}
